In patent US5789434A, “Derivatives of substituted 4-biarylbutyric acid as matrix metalloprotease inhibitors” (priority 1995, dated 1998):

Key:
[1] = biological target: T1, MMP-3 (Homo sapiens, UniProt P08254); assay: Primary Thiopeptilide MMP-3 Inhibition Assay; type: biochemical; details: for inhibition at 5 µM: read-out: MMP-3 Thiopep. % inhibition; for IC50: pH 6.5, 13 nM stromelysin, x (n) = average of n determinations, read-out: MMP-3 Thiopep. IC50
T1 construct: Truncated Prostromelysin-257 was expressed in a soluble form in E.coli; made in house; host or cells: E. coli
T1 sequence (P08254 100-274 limits assumed): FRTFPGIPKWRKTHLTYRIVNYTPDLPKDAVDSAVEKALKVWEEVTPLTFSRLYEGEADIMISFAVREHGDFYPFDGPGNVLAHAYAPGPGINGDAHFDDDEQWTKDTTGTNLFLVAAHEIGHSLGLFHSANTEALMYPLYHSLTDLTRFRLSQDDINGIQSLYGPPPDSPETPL

[2] = biological target: T2, MMP-9 (Homo sapiens, UniProt P14780); assay: Thiopeptilide MMP-9 Inhibition Assay; type: biochemical; details: for inhibition at 5 µM: read-out: MMP-9: Thiopep. % inhibition; for IC50: pH 6.5, x (n) = average of n determinations, read-out: MMP-9: Thiopep. IC50
T2 construct: from tissue; host or cells: human polymorphonuclear leukocytes (PMN) from whole blood (New York Blood Center), PMA-stimulated supernatant
T2 sequence (P14780 107-707 limits assumed): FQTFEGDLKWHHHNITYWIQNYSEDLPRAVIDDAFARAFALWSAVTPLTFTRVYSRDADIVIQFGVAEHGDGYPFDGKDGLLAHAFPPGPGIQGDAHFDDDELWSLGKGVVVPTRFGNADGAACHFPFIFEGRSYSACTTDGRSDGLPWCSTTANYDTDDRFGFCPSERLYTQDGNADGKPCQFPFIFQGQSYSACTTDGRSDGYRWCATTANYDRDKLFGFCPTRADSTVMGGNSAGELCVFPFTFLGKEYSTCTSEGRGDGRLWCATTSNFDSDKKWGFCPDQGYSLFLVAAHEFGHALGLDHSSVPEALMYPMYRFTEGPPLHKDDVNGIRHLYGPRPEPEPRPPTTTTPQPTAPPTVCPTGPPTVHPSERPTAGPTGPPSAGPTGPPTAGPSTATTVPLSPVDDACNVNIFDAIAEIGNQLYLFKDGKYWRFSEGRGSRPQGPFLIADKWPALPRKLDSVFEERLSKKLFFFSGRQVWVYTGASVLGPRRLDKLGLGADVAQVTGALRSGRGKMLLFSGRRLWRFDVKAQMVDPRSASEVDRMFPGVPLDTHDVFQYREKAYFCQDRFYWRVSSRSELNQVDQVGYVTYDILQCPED

inhibition at 5 µM [1] [%]	inhibition at 5 µM [2] [%]	IC50 [1] [µM]	IC50 [2] [µM]	SMILES
9	0			CC(=O)c1ccc(-c2ccc(Cl)cc2)cc1 [Example 37, Ethanone, 1-(4'-chloro[1,1'-biphenyl]-4-yl)-]
	10	10		C=C(CC(O)c1ccc(-c2ccc(Cl)cc2)cc1)C(=O)O (stereo not drawn) [Example 38, [1,1'-Biphenyl]-4-butanoic acid, 4'-chloro-γ-hydroxy-α-methylene-, reference compound]
16	4			O=C(O)CCC(O)c1ccc(-c2ccccc2F)cc1 (centres unmarked) [Example 39, [1,1'-Biphenyl]-4-butanoic acid, 2'-fluoro-γ-hydroxy-, reference compound]
		0.121	0.05	O=C(CC(CCCc1ccccc1)C(=O)O)c1ccc(-c2ccc(I)cc2)cc1 (stereo not drawn) [Example 40, [1,1'-Biphenyl]-4-butanoic acid, 4'-iodo-γ-oxo-α-(3-phenylpropyl)-]
		0.7	4	CC(C)CC(CC(=O)c1ccc(-c2ccc(C#N)cc2)cc1)C(=O)O (stereo not drawn) [Example 46, [1,1'-Biphenyl]-4-butanoic acid, 4'-cyano-α-(2-methylpropyl)-γ-oxo-]
	22	0.56		CC(C)(C)OC(=O)Nc1ccc(-c2ccc(C(=O)CC(CCCc3ccccc3)C(=O)O)cc2)cc1 (stereo not drawn) [Example 47, [1,1'-Biphenyl]-4-butanoic acid, 4'-[[(1,1-dimethylethoxy)carbonyl]amino]-γ-oxo-α-(3-phenylpropyl)-]
53	15			CC(C)(C)c1ccc(-c2ccc(C(=O)CC(CCCc3ccccc3)C(=O)O)cc2)cc1 (stereo not drawn) [Example 48, [1,1'-Biphenyl]-4-butanoic acid, 4'-(1,1-dimethylethyl)-γ-oxo-α-(3-phenylpropyl)-]
	13	0.75		CC(C)(C)OC(=O)NCc1ccc(-c2ccc(C(=O)CC(CCCc3ccccc3)C(=O)O)cc2)cc1 (stereo not drawn) [Example 49, [1,1'-Biphenyl]-4-butanoic acid, 4'-[[[(1,1-dimethylethoxy)carbonyl]amino]methyl]-γ-oxo-α-(3-phenylpropyl)-]
		0.63	0.8	N#CCc1ccc(-c2ccc(C(=O)CC(CCCc3ccccc3)C(=O)O)cc2)cc1 (stereo not drawn) [Example 50, [1,1'-Biphenyl]-4-butanoic acid, 4'-(cyanomethyl)γ-oxo-α-(3-phenylpropyl)-]
		0.17	0.1	CSc1ccc(-c2ccc(C(=O)CC(CCCc3ccccc3)C(=O)O)cc2)cc1 (stereo not drawn) [Example 51, [1,1'-Biphenyl]-4-butanoic acid, 4'-(methylthio)-γ-oxo-α-(3-phenylpropyl)-]
		0.076	0.037	O=C(CC(CCCc1ccccc1)C(=O)O)c1ccc(-c2ccc(OCCCl)cc2)cc1 (stereo not drawn) [Example 52, [1,1'-Biphenyl]-4-butanoic acid, 4'-(2-chloroethoxy)-γ-oxo-α-(3-phenylpropyl)-]
		0.95	0.8	O=C(CC(CCCc1ccccc1)C(=O)O)c1ccc(-c2ccc(CO)cc2)cc1 (stereo not drawn) [Example 53, [1,1'-Biphenyl]-4-butanoic acid, 4'-(hydroxymethyl)-γ-oxo-α-(3-phenylpropyl)-]
		0.19	0.7	O=C(CC(CCCc1ccccc1)C(=O)O)c1ccc(-c2ccc(OCCO)cc2)cc1 (stereo not drawn) [Example 54, [1,1'-Biphenyl]-4-butanoic acid, 4'-(2-hydroxyethoxy)-γ-oxo-α-(3-phenylpropyl)-]
		0.17	0.11	C=Cc1ccc(-c2ccc(C(=O)CC(CCCc3ccccc3)C(=O)O)cc2)cc1 (stereo not drawn) [Example 55, [1,1'-Biphenyl]-4-butanoic acid, 4'-ethenyl-γ-oxo-α-(3-phenylpropyl)-]
		0.31	0.7	N#Cc1ccc(-c2ccc(C(=O)CC(CCCc3ccccc3)C(=O)O)cc2)cc1 (stereo not drawn) [Example 56, [1,1'-Biphenyl]-4-butanoic acid, 4'-cyano-γ-oxo-α-(3-phenylpropyl)-]
16	22			O=C(CC(CCCc1ccccc1)C(=O)O)c1ccc(-c2ccc(-c3nnn[nH]3)cc2)cc1 (stereo not drawn) [Example 57, [1,1'-Biphenyl]-4-butanoic acid, γ-oxo-α-(3-phenylpropyl)-4'-(1H-tetrazol-5-yl)-]
		1.2	1.5	Nc1ccc(-c2ccc(C(=O)CC(CCCc3ccccc3)C(=O)O)cc2)cc1 (stereo not drawn) [Example 58, [1,1'-Biphenyl]-4-butanoic acid, 4'-amino-γ-oxo-α-(3-phenylpropyl)-]
33			2	NCc1ccc(-c2ccc(C(=O)CC(CCCc3ccccc3)C(=O)O)cc2)cc1 (stereo not drawn) [Example 59, [1,1'-Biphenyl]-4-butanoic acid, 4'-(aminomethyl)γ-oxo-α-(3-phenylpropyl)-]
		0.6	0.18	CN(C)c1ccc(-c2ccc(C(=O)CC(CCCc3ccccc3)C(=O)O)cc2)cc1 (stereo not drawn) [Example 60, [1,1'-Biphenyl]-4-butanoic acid, 4'-(dimethylamino)-γ-oxo-α-(3-phenylpropyl)-]
35	22			CCc1ccc(-c2ccc(C(=O)CC(CC(C)C)C(=O)O)nc2)cc1 (stereo not drawn) [Example 61, 2-Pyridinebutanoic acid, 5-(4-ethylphenyl)-α-(2-methylpropyl)-γ-oxo-]
		0.4	4.5	O=C(CC(CCCc1ccccc1)C(=O)O)c1ccc(-c2ccc(C(F)(F)F)cc2)cc1 (stereo not drawn) [Example 62, [1,1'-Biphenyl]-4-butanoic acid, γ-oxo-α-(3-phenylpropyl)-4'-(trifluoromethyl)-]
		0.98	0.5	O=C(CC(CCCc1ccccc1)C(=O)O)c1ccc(-c2ccc([N+](=O)[O-])cc2)cc1 (stereo not drawn) [Example 63, [1,1'-Biphenyl]-4-butanoic acid, 4'-nitro-γ-oxo-α-(3-phenylpropyl)-]
	29	0.3		CC(C)CC(CC(=O)c1ccc(-c2ccc(Cl)c(Cl)c2)cc1)C(=O)O (stereo not drawn) [Example 64, [1,1'-Biphenyl]-4-butanoic acid, 3',4'-dichloro-α-(2-methylpropyl)-γ-oxo-]
	47	0.84		O=C(CC(CCCc1ccccc1)C(=O)O)c1ccc(-c2ccc(Cl)c(Cl)c2)cc1 (stereo not drawn) [Example 65, [1,1'-Biphenyl]-4-butanoic acid, 3',4'-dichloro-γ-oxo-α-(3-phenylpropyl)-]
7	11			O=C(CC(CCCc1ccccc1)C(=O)O)c1ccc(-c2cc(Cl)cc(Cl)c2)cc1 (stereo not drawn) [Example 66, [1,1'-Biphenyl]-4-butanoic acid, 3',5=-dichloro-γ-oxo-α-(3-phenylpropyl)-]
		0.15	0.78	CC(=O)Oc1ccc(-c2ccc(C(=O)CC(CCCc3ccccc3)C(=O)O)cc2)cc1 (stereo not drawn) [Example 67, [1,1'-Biphenyl]-4-butanoic acid, 4'-(acetyloxy)-γ-oxo-α-(3-phenylpropyl)-]
		0.28	0.3	O=C(CC(CCCc1ccccc1)C(=O)O)c1ccc(-c2ccc(Cl)s2)cc1 (stereo not drawn) [Example 68, Benzenepentanoic acid, α-[2-[4-(5-chloro-2-thienyl)phenyl]-2-oxoethyl]-]
		0.22	0.6	COc1ccc(-c2ccc(C(=O)CC(CCCc3ccccc3)C(=O)O)cc2)cc1 (stereo not drawn) [Example 73, [1,1'-Biphenyl]-4-butanoic acid, 4'-methoxy-γ-oxo-α-(3-phenylpropyl)-]
